In patent publication US8871933B2, “Purified pyrroloquinolinyl-pyrrolidine-2,5-dione compositions and methods for preparing and using same” (ArQule, Inc., priority 2009, dated 2014):

Columns and labels:
[1] = system: MDA-MB-231 cells; experiment: Colony formation / surviving fraction assay; assay type: cell-based; conditions: Homo sapiens, two days incubation, colonies counted two weeks later, read-out: IC50 (surviving fraction equaled 50)
Protocol: MDA-MB-231 cells (ATCC #HTB-26), grown in DMEM plus 15% heat inactivated fetal bovine serum plus 10 mM HEPES pH 7.5, were plated in 60 mm^2 plates (2×10^5 cells per plate). After two days candidate compounds in DMSO at various concentrations were diluted in media and added to individual plates such that the final DMSO concentration in the cell culture media was 0.1%. After two days incubation the culture was trypsinized, cells were washed with media, counted using a hemocytometer and 500 cells, including cell bodies, were plated in 100 mm^2 plates in media. Two weeks later the media was removed and the cell colonies were fixed with methanol for 10 minutes, stained with 1% crystal violet for 10 minutes, washed with water and air dried. Cell colonies were visually counted when there were greater then 50 cells present per colony. Plating efficiency was defined as the average number of colonies formed divided by 500. The surviving fraction was defined as the plating efficiency of a candidate compound divided by the plating efficiency of DMSO multiplied by 100. For candidate compound titrations, the IC50 value was determined by fitting the equation y=Ae^Bx to the data points and extrapolating the concentration where surviving fraction equaled 50. […]

[2] = system: MDA-MB-231 breast cancer cells; experiment: Cancer cell invasion assay (inserts); assay type: cell-based; conditions: Homo sapiens, 24 hours pretreatment, 24 hours invasion, estimated, read-out: IC50, inhibition of invasive phenotype
Protocol: MDA-MB-231 cells were pretreated with indicated concentrations of (−)-trans-3-(5,6-dihydro-4H-pyrrolo[3,2,1-ij]quinolin-1-yl)-4-(1H-indol-3-yl)pyrrolidine-2,5-dione for 24 hours. 300 μl of each cell suspension (at a concentration 0.5×10^6 cells/mL in serum free medium) was placed in individual inserts and incubated for 24 hours at 37° C. The bottom wells housing the inserts contained […] of 10% FBS containing medium. […] Each insert was then transferred to a clean well containing cell stain solution and incubated for 10 minutes at room temperature. The bottom of the insert was destained by incubating in extraction solution and OD was measured at 560 nm. (−)-trans-3-(5,6-dihydro-4H-pyrrolo[3,2,1-ij]quinolin-1-yl)-4-(1H-indol-3-yl)pyrrolidine-2,5-dione inhibited the migration across interstices in confluent cultures of MDA-MB-231 cancer cells. The data represent the mean of two independent experiments. (See FIG. 7)

[3] = system: human prostate cancer PC3; experiment: Human prostate cancer xenograft; assay type: in vivo; conditions: monotherapy
Protocol: (§1) The efficacy of (−)-trans-3-(5,6-dihydro-4H-pyrrolo[3,2,1-ij]quinolin-1-yl)-4-(1H-indol-3-yl)pyrrolidine-2,5-dione was also tested in xenograft models with several other cancer cell lines: human pancreatic cancer MIA PaCa2 (FIG. 9, Panel B), human prostate cancer PC3 (FIG. 9, Panel C) and human gastric cancer MKN45 (FIG. 9, Panel D). The cells were treated with (−)-trans-3-(5,6-dihydro-4H-pyrrolo[3,2,1-ij]quinolin-1-yl)-4-(1H-indol-3-yl)pyrrolidine-2,5-dione as a monotherapy at indicated concentrations.

[4] = system: human gastric cancer MKN45; experiment: Human gastric cancer xenograft; assay type: in vivo; conditions: monotherapy
Protocol: as §1

[5] = system: MCF-7; experiment: Cytotoxicity MTS assay; assay type: cell-based, human; conditions: 0.03 to 30 μM; no immunodetectable c-Met or phospho-c-Met
Protocol: (§2) Various cancer cell lines were treated with (−)-trans-3-(5,6-dihydro-4H-pyrrolo[3,2,1-ij]quinolin-1-yl)-4-(1H-indol-3-yl)pyrrolidine-2,5-dione at indicated concentrations ranging from 0.03 to 30 μM. The sensitivity of these cells to (−)-trans-3-(5,6-dihydro-4H-pyrrolo[3,2,1-ij]quinolin-1-yl)-4-(1H-indol-3-yl)pyrrolidine-2,5-dione was measured by a standard cytoxicity MTS assay (FIG. 10). Human cancer cell lines expressing c-Met and/or phospho-c-Met were sensitive to (−)-trans-3-(5,6-dihydro-4H-pyrrolo[3,2,1-ij]quinolin-1-yl)-4-(1H-indol-3-yl)pyrrolidine-2,5-dione.

[6] = system: NCI-H661; experiment: Cytotoxicity MTS assay; assay type: cell-based, human; conditions: 0.03 to 30 μM; no immunodetectable c-Met or phospho-c-Met
Protocol: as §2

[7] = system: SK-MEL-28; experiment: Cytotoxicity MTS assay; assay type: cell-based, human; conditions: 0.03 to 30 μM; no immunodetectable c-Met or phospho-c-Met
Protocol: as §2

[8] = biological target: T1, c-Met (Homo sapiens, UniProt P08581); experiment: Kinase inhibition, c-Met; assay type: biochemical; conditions: read-out: inhibitory constant (Ki)
T1 sequence (P08581 25-1390): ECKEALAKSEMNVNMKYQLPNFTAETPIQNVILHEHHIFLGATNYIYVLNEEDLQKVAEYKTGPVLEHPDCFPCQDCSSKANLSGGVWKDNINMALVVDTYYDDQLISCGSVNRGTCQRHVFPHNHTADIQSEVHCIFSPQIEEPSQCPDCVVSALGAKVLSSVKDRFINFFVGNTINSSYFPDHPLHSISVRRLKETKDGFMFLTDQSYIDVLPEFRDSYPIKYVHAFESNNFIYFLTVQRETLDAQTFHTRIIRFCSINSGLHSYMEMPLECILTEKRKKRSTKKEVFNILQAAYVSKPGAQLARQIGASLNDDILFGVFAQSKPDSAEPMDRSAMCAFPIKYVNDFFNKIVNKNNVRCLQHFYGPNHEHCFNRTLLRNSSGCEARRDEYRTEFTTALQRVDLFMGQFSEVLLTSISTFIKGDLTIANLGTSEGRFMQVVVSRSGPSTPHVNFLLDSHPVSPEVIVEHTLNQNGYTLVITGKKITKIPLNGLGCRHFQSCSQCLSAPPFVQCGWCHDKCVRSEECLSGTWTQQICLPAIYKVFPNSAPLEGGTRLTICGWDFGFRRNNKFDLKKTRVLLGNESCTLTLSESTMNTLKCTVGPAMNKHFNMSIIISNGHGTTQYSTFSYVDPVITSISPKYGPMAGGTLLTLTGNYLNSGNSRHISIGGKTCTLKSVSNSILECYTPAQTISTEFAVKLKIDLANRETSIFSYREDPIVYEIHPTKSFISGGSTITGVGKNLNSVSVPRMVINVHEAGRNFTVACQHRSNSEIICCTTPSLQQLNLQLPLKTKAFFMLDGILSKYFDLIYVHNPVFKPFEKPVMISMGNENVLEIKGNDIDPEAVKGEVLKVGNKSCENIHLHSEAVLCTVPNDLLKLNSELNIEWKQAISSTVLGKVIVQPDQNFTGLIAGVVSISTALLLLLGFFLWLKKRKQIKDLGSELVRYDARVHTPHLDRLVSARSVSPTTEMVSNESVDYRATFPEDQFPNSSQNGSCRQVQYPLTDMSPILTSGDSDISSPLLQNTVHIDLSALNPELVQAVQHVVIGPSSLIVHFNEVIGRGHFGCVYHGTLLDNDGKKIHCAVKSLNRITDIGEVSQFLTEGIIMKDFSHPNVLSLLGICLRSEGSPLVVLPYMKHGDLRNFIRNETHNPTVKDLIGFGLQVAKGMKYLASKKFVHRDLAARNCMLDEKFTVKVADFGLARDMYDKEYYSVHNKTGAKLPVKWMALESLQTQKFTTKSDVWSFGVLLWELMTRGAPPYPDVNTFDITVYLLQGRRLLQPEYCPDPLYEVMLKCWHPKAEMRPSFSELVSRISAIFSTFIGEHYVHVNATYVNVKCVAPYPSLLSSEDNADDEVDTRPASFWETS
Protocol: (§3) (−)-trans-3-(5,6-dihydro-4H-pyrrolo[3,2,1-ij]quinolin-1-yl)-4-(1H-indol-3-yl)pyrrolidine-2,5-dione was assessed for its activity to inhibit a large panel (n=230) of human kinases.

[9] = biological target: CAMKIIδ (Homo sapiens, UniProt Q13557); experiment: Kinase panel inhibition, CAMKIIδ; assay type: biochemical
Protocol: as §3

[10] = biological target: Flt4 (Homo sapiens, UniProt P35916); experiment: Kinase panel inhibition, Flt4; assay type: biochemical
Sequence of Flt4 (P35916 25-1363): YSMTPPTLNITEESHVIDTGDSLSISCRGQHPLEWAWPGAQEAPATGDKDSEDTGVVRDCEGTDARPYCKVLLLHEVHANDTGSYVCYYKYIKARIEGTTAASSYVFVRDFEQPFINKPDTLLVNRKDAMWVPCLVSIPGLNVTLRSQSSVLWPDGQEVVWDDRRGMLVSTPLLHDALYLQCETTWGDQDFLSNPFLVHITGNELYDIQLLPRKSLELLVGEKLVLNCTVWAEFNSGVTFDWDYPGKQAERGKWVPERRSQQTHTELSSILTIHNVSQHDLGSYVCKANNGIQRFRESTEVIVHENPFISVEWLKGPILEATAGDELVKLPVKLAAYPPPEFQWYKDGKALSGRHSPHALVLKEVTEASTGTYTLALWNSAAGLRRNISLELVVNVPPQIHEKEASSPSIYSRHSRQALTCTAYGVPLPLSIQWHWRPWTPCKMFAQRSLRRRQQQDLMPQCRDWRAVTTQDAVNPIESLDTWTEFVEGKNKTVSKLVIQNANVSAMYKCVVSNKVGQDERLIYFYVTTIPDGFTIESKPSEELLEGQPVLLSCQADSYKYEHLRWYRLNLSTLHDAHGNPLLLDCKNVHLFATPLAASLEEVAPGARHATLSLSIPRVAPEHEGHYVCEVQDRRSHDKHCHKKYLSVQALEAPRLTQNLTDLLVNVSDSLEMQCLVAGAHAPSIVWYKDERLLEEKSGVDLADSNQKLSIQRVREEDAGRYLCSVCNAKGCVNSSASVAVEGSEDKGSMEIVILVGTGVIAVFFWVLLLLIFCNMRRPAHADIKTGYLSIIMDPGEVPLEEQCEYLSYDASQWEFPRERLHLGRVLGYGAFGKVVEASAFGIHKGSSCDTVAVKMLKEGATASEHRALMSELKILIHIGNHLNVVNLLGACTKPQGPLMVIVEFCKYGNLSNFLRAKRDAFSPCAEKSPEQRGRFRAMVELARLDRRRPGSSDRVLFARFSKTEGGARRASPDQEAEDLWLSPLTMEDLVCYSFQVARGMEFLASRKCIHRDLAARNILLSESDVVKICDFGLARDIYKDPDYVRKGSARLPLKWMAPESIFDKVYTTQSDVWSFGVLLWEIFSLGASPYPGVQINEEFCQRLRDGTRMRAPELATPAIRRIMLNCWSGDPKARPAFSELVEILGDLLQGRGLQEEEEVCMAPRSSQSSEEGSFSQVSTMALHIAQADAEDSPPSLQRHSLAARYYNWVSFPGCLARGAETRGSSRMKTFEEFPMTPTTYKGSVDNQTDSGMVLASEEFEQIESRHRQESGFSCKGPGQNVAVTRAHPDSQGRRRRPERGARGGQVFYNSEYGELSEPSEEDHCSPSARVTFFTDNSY
Protocol: as §3

[11] = biological target: PAK3 (Homo sapiens, UniProt O75914); experiment: Kinase panel inhibition, PAK3; assay type: biochemical
Sequence of PAK3 (O75914 whole entry): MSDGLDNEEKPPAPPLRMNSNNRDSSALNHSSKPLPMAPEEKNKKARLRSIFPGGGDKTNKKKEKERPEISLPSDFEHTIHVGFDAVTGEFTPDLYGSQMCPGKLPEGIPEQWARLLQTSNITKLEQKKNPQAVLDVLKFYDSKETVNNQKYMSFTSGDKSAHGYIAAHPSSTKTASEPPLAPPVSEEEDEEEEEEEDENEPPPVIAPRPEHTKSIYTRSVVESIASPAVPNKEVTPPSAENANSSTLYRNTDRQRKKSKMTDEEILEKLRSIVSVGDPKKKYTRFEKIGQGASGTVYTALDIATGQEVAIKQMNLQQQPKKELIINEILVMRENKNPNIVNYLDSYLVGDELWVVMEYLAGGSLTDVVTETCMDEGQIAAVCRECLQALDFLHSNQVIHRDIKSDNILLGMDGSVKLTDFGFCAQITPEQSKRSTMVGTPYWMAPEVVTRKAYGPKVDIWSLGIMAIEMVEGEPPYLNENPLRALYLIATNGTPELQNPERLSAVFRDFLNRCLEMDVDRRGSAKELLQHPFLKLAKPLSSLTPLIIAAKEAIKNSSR
Protocol: as §3

[12] = system: panel (n=230) of human kinases; experiment: Large panel (n=230) of human kinases; assay type: biochemical; conditions: n=230 human kinases
Protocol: as §3

[13] = system: tumors; experiment: Clinical studies (tolerability and tumor responses); assay type: in vivo, human
From the text: (−)-trans-3-(5,6-dihydro-4H-pyrrolo[3,2,1-ij]quinolin-1-yl)-4-(1H-indol-3-yl)pyrrolidine-2,5,-dione is a selective inhibitor of c-Met, a receptor tyrosine kinase. When abnormally activated, c-Met plays multiple roles in aspects of human cancer, including cancer cell growth, survival, angiogenesis, invasion and metastasis.

[14] = biological target: T1, c-Met; experiment: c-Met in tumor biopsies from treated patients; assay type: in vivo; parameters: the c-Met protein in tumor biopsies from patients; from tissue; host or cells: tumour biopsies from treated patients; conditions: patients treated with the drug

## O=C1NC(=O)[C@@H](c2cn3c4c(cccc24)CCC3)[C@@H]1c1c[nH]c2ccccc12 (single isomer, unassigned) [(−)-trans-3-(5,6-dihydro-4H-pyrrolo[3,2,1-ij]quinolin-1-yl)-4-(1H-indol-3-yl)pyrrolidine-2,5-dione]
[1]
  IC50: 620 nM
[2]
  IC50: ~500 nM
[3]
  tumor growth: significantly inhibited tumor growth
[4]
  tumor growth: significantly inhibited tumor growth
[5]
  sensitivity (cytotoxicity MTS assay): little sensitivity
[6]
  sensitivity (cytotoxicity MTS assay): little sensitivity
[7]
  sensitivity (cytotoxicity MTS assay): little sensitivity
[8]
  Ki: ~360 nM
[9]
  IC50: ~10 µM
[10]
  IC50: ~16 µM
[11]
  IC50: ~6.6 µM
[12]
  kinase selectivity in panel: inhibited only c-Met to a significant degree
[13]; broad ranges of tumors and doses
  tumor responses in clinical studies: tumor responses and prolonged stable disease
[13]; human, in vivo
  tolerability in clinical studies: well tolerated
[14]
  inhibition of c-Met protein in tumor biopsies: ability to inhibit the c-Met protein in tumor biopsies
